# Target: T1, T. maritima encapsulin (TmEnc) (Thermotoga maritima, UniProt Q9WZP2)
# T1 construct: gene enc; codon-optimized gene in pET-11a, E. coli Rosetta2 (DE3); no tag mentioned; icosahedral shell without cargo protein; flavin site formed by three subunits
# T1 sequence (Q9WZP2 1-265): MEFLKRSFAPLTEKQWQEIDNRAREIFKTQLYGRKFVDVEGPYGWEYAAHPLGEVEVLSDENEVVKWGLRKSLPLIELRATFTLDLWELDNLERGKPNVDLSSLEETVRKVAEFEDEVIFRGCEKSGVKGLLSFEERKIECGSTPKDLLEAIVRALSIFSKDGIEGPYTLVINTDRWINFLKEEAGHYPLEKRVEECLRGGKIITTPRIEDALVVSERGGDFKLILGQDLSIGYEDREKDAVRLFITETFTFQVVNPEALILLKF
# Assay: cryo-EM structure ([…] Å)
# Type: binding
# Conditions: co-purified from E. coli lysate through 80°C step; exact flavin identity ambiguous, FMN modelled; exterior site near threefold axis, stacks on Trp87; Tris pH 8.0, 150 mM NaCl
structure (smiles),measurement,value
Cc1cc2nc3c(=O)[nH]c(=O)nc-3n(C[C@H](O)[C@H](O)[C@H](O)COP(=O)(O)O)c2cc1C [flavin mononucleotide],cryo-EM structure (2.0 Å),flavin mononucleotide (FMN) seems to be consistent with the density and has been modeled
